In brackets after ≈: the same amount, converted by molar mass. Several values for one entry are separate records, joined by “and”; a condition that tells them apart may be missing. Identical values can stand only once.

The source of these data is DBAASP.

Among the test systems are Escherichia coli BL21; Aureobasidium pullulans; Staphylococcus aureus.
Test in all cases: ≥ marks a high value that may be exact or a test limit, other limits are often not marked, values filed in µg/mL are converted to µM
Assay [1] relates to Pseudomonas aeruginosa PAO1.
The test system of assay [2] is Streptococcus pyogenes M1T1 5448.
Assay [3] has as its system Candida albicans NCYC 1467.
For assay [4], the system named is Enterococcus faecalis NCTC 12697.
Assay [5] has as its system Escherichia coli NCTC 10418.
The subject of assay [6] is Klebsiella pneumoniae ATCC 43816.
For assay [7], the system named is Pseudomonas aeruginosa ATCC 27853.
Assay [8] deals with Staphylococcus aureus NCTC 10788.
Assay [9] deals with Staphylococcus aureus NCTC 12493.
In assay [10] the test system is Candida albicans ATCC 10231.
The test system of assay [11] is Corynebacterium glutamicum ATCC 13032.
For assay [12], the system named is Escherichia coli ATCC 25922.
Assay [13] relates to Staphylococcus aureus ATCC 9144.
The subject of assay [14] is Staphylococcus aureus SH1000.
In assay [15] the test system is Acinetobacter baumannii ATCC 19606.
The subject of assay [16] is Candida albicans ATCC 90028.
Assay [17] deals with Cryptococcus neoformans ATCC 208821.
Assay [18] relates to Klebsiella pneumoniae ATCC 700603.
For assay [19], the system named is Staphylococcus aureus ATCC 43300.
Assay [20] concerns Acinetobacter baumannii 7226/16.
Assay [21] relates to Klebsiella pneumoniae ESBL 344/17.
Assay [22] relates to Pseudomonas aeruginosa 522/17.
Assay [23] relates to Staphylococcus aureus 1399/17.
The test system of assay [24] is Staphylococcus aureus ATCC 33591.
The subject of assay [25] is Staphylococcus aureus SG511.
Assay [26] deals with Candida albicans FRR 5580.
The subject of assay [27] is Pseudomonas aeruginosa ATCC 9027.
Assay [28] relates to Staphylococcus aureus ATCC 25923.

As to `CC[C@H](C)[C@H](NC(=O)[C@H](CCCCN)NC(=O)[C@H](CCCCN)NC(=O)[C@H](Cc1c[nH]c2ccccc12)NC(=O)[C@H](CCC(=O)O)NC(=O)[C@H](CC(N)=O)NC(=O)[C@@H](NC(=O)[C@@H](NC(=O)[C@H](CCCCN)NC(=O)[C@H](CCCCN)NC(=O)[C@H](CC(C)C)NC(=O)[C@H](CCCN=C(N)N)NC(=O)[C@H](CC(N)=O)NC(=O)[C@H](Cc1ccccc1)NC(=O)[C@@H](NC(=O)[C@H](CCCCN)NC(=O)[C@H](CCC(=O)O)NC(=O)[C@@H](NC(=O)CNC(=O)[C@H](C)N)[C@@H](C)O)[C@@H](C)CC)[C@@H](C)O)[C@@H](C)CC)C(=O)N[C@@H](C)C(=O)N[C@@H](CCCCN)C(=O)N[C@@H](CCCN=C(N)N)C(=O)N[C@@H](C)C(=O)N[C@@H](Cc1c[nH]c2ccccc12)C(=O)O` [AGTEKIFNRLKKTINEWKKIAKRAW], the MIC stood at 4 µM (≈ 12.1 µg/mL) against Escherichia coli BL21, 16 µM (≈ 48.5 µg/mL) in assay [1] and 8 µM (≈ 24.2 µg/mL) in [2].

On to `CC[C@H](C)[C@@H]1NC(=O)[C@H](C)NC(=O)[C@@H](NC(=O)[C@H](Cc2ccccc2)NC(=O)[C@@H](NC(=O)[C@H](CCCCN)NC(=O)[C@@H]2CCCN2C(=O)[C@H](CC(C)C)NC(=O)[C@H](Cc2ccccc2)NC(=O)[C@H](CCCCN)NC(=O)[C@H](C)NC(=O)[C@H](C)NC(=O)[C@H](CC(C)C)NC(=O)CNC(=O)[C@H](C)NC(=O)[C@@H](NC(=O)[C@H](CC(C)C)NC(=O)[C@@H]2CCCN2C(=O)[C@H](CC(C)C)NC(=O)[C@@H](N)Cc2ccccc2)[C@@H](C)CC)[C@@H](C)CC)CSSC[C@@H](C(=O)O)NC(=O)[C@H](CCCCN)NC(=O)[C@H](CCCCN)NC(=O)[C@H]([C@@H](C)O)NC1=O` [FLPLIAGLAAKFLPKIFCAITKKC], for which the MIC in assay [3] came out at 4 µM (≈ 10.4 µg/mL); in assay [4], 8 µM (≈ 20.8 µg/mL); in assay [5] it was 8 µM (≈ 20.8 µg/mL); in assay [6], 16 µM (≈ 41.7 µg/mL); in assay [7], 32 µM (≈ 83.4 µg/mL); in [8], 4 µM (≈ 10.4 µg/mL). Moreover, in assay [9], the minimum inhibitory concentration (MIC) was determined as 16 µM (≈ 41.7 µg/mL).

As to `CC(C)C[C@H](NC(=O)[C@H](CCC(N)=O)NC(=O)[C@H](CCC(N)=O)NC(=O)[C@H](C)NC(=O)CNC(=O)[C@H](C)NC(=O)[C@H](CCCCN)NC(=O)CNC(=O)[C@@H](NC(=O)[C@H](CCC(N)=O)NC(=O)[C@H](CCCCN)NC(=O)[C@H](CCCCN)NC(=O)[C@H](CC(C)C)NC(=O)[C@H](Cc1ccc(O)cc1)NC(=O)[C@H](CCCCN)NC(=O)[C@H](C)NC(=O)CNC(=O)[C@H](C)NC(=O)[C@H](CCCCN)NC(=O)[C@H](Cc1ccccc1)NC(=O)[C@H](CC(C)C)NC(=O)[C@H](CO)NC(=O)[C@H](CO)NC(=O)[C@H](Cc1ccccc1)NC(=O)CN)C(C)C)C(N)=O` [GFSSLFKAGAKYLKKQVGKAGAQQL], the MIC in [3] is not below 64 µM; in assay [4], 16 µM (≈ 42 µg/mL); in assay [5] it was 8 µM (≈ 21 µg/mL); in [6], not below 128 µM; in assay [7] it was 16 µM (≈ 42 µg/mL); in assay [8], 16 µM (≈ 42 µg/mL). Further, in assay [9], the MIC is not below 64 µM.

Regarding `CC(C)[C@H](NC(=O)[C@H](CCCCN)NC(=O)[C@H](C)NC(=O)[C@@H](NC(=O)[C@@H](NC(=O)[C@H](CCCN=C(N)N)NC(=O)[C@H](C)NC(=O)[C@H](Cc1c[nH]c2ccccc12)NC(=O)[C@H](Cc1c[nH]c2ccccc12)NC(=O)CN)[C@@H](C)O)C(C)C)C(=O)N[C@@H](CCCN=C(N)N)C(=O)N[C@@H](CCCCN)C(N)=O` [GWWARTVAKVRK], the minimum inhibitory concentration (MIC) is not below 50 µM in the assay with Aureobasidium pullulans; 25 µM (≈ 36.4 µg/mL) in assay [10]; 1.6 µM (≈ 2.33 µg/mL) in assay [11]; 6.3 µM (≈ 9.18 µg/mL) in assay [12]; 12.5 µM (≈ 18.2 µg/mL) in [7]; not below 50 µM in assay [13].

For `CC[C@H](C)[C@H](NC(=O)[C@H](CCCCN)NC(=O)[C@H](CC(C)C)NC(=O)[C@H](CC(C)C)NC(=O)[C@@H](N)CCCCN)C(=O)N[C@H](C(=O)N[C@@H](CCCCN)C(=O)N[C@@H](CCCCN)C(=O)N[C@H](C(=O)N[C@H](C(=O)NCC(=O)N[C@@H](C)C(=O)N[C@@H](CC(C)C)C(=O)NCC(N)=O)C(C)C)C(C)C)C(C)C` [KLLKIVKKVVGALG], the MIC in assay [14] is not below 100 µM.

For the compound `CC(C)C[C@H](NC(=O)[C@H](C)NC(=O)CNC(=O)[C@H](CC(C)C)NC(=O)[C@H](CC(C)C)NC(=O)[C@H](CCCCN)NC(=O)[C@H](CCCCN)NC(=O)[C@H](CC(C)C)NC(=O)[C@H](CC(C)C)NC(=O)[C@H](CCCCN)NC(=O)[C@H](CC(C)C)NC(=O)[C@H](CC(C)C)NC(=O)[C@@H](N)CCCCN)C(=O)NCC(N)=O` [KLLKLLKKLLGALG], the MIC in assay [15] was 1 µM (≈ 1.51 µg/mL); in [16], 11 µM (≈ 16.6 µg/mL); in assay [17] it was 3 µM (≈ 4.52 µg/mL); in assay [12], 1 µM (≈ 1.51 µg/mL); in assay [18], 5 µM (≈ 7.54 µg/mL); in assay [7] it was 21 µM (≈ 31.6 µg/mL). Moreover, the MIC in assay [19] was 3 µM (≈ 4.52 µg/mL); in assay [14], 10 µM (≈ 15.1 µg/mL).

In the case of `CC[C@H](C)[C@H](NC(=O)[C@H](CCCN=C(N)N)NC(=O)[C@@H](NC(=O)[C@@H]1CCCN1C(=O)[C@@H]1CCCN1C(=O)[C@H](CCCN=C(N)N)NC(=O)[C@H](CCCN=C(N)N)NC(=O)[C@H](Cc1ccccc1)NC(=O)[C@@H]1CCCN1C(=O)[C@H](CC(C)C)NC(=O)[C@H](CCCN=C(N)N)NC(=O)[C@H](Cc1ccccc1)NC(=O)[C@H](CCCN=C(N)N)NC(=O)[C@H](CCCN=C(N)N)NC(=O)[C@H](Cc1ccccc1)NC(=O)[C@@H](N)CCCN=C(N)N)[C@@H](C)CC)C(=O)N[C@@H](Cc1cnc[nH]1)C(N)=O` [RFRRFRLPFRRPPIRIH], the MIC in [20] was 8 µM and 12.5 µM; in assay [21] it was 8 µM and 6.2 µM; in assay [22], 16 µM (≈ 37.1 µg/mL); in assay [23], 4 µM and 6.2 µM; in assay [24], 8 µM (≈ 18.6 µg/mL); in assay [25], 0.5 µM (≈ 1.16 µg/mL).

Regarding `NCCCC[C@H](NC(=O)[C@H](Cc1c[nH]c2ccccc12)NC(=O)[C@H](Cc1c[nH]c2ccccc12)NC(=O)[C@@H](N)CCCN=C(N)N)C(=O)N[C@@H](Cc1c[nH]c2ccccc12)C(=O)N[C@@H](Cc1c[nH]c2ccccc12)C(N)=O` [RWWKWW], the MIC in [26] is not below 61.1 µM; in assay [27] it was 30.6 µM (≈ 32 µg/mL).

For `NCCCC[C@H](NC(=O)[C@H](Cc1c[nH]c2ccccc12)NC(=O)[C@H](Cc1c[nH]c2ccccc12)NC(=O)[C@H](CCCN=C(N)N)NC(=O)[C@H](Cc1c[nH]c2ccccc12)NC(=O)[C@@H](N)Cc1c[nH]c2ccccc12)C(=O)N[C@@H](Cc1c[nH]c2ccccc12)C(=O)N[C@@H](Cc1c[nH]c2ccccc12)C(N)=O` [WWRWWKWW], the MIC in [26] was not below 45.1 µM; in assay [12] it was 5.64 µM (≈ 7.99 µg/mL); in assay [27], 22.5 µM (≈ 32 µg/mL); in [28] it was 5.64 µM (≈ 7.99 µg/mL); in the assay on Staphylococcus aureus it was 2.82 µM (≈ 4 µg/mL).
